Results on four compounds are retold here after patent publication US8110575B2, “Compounds” (Boehringer Ingelheim International GmbH, priority 2007, dated 2012).

The target in this test is T1, human CGRP receptor (Homo sapiens, UniProt O60894+Q16602).
T1 construct: SK-N-MC membranes (˜20 μg protein) are incubated for 180 minutes at ambient temperature; endogenous in cells; host or cells: SK-N-MC cells (membrane preparation)
T1 sequence (Q16602 23-461): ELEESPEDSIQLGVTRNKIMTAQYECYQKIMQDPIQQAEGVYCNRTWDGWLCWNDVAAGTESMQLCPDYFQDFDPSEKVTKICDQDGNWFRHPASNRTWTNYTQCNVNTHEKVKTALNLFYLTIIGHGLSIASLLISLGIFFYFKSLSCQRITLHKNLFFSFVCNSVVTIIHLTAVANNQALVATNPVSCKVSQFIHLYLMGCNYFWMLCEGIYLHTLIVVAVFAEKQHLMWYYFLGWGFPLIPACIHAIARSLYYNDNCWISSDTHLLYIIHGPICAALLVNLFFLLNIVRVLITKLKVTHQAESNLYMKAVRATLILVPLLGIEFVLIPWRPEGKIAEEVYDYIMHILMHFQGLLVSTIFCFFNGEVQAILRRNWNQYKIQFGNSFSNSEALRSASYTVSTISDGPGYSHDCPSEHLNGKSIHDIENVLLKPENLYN
T1 sequence (O60894 27-148): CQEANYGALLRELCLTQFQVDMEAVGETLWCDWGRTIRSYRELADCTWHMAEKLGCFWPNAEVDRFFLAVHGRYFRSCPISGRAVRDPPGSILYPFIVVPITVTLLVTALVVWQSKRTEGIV
The test can be described thus: Binding studies with SK-N-MC cells (expressing the human CGRP receptor). The conditions noted are these: SK-N-MC membranes, 125I-iodotyrosyl-CGRP displacement. As to the method: A. Binding Studies with SK-N-MC Cells (Expressing the Human CGRP Receptor)
SK-N-MC membranes (˜20 μg protein) are incubated for 180 minutes at ambient temperature with 50 pM ^125I-iodotyrosyl-Calcitonin-Gene-Related Peptide and increasing concentrations of the test substances in a total volume of […] (assay buffer: 10 mM tris, 50 mM NaCl, 5 mM MgCl2, 1 mM EDTA, pH=7.4). The incubation is ended by rapid filtration through GF/B-glass fibre filters treated with polyethyleneimine (0.1%) using a cell harvester. The protein-bound radioactivity is measured using a gamma counter. Non-specific binding is defined as the bound radioactivity after the presence of 1 μM BIBN4096BS during incubation.
The concentration binding curves are analysed using computer-aided non-linear curve fitting.
The Ki is the equilibrium dissociation constant of an inhibitor or competing ligand from its target. A higher Ki goes with weaker binding. In turn, `O=C(c1cc(Nc2ccc3c(c2)CC2(C3)C(=O)Nc3ncccc32)ncn1)N1CCc2ccccc21` (stereo not shown) [(1)] yielded a Ki of 15 nM. `O=C1Nc2ccccc2C2(CCN(c3cc(C(=O)N4CCc5ccccc54)ncn3)CC2)O1` [(3)] returned an inhibition constant (Ki) of 535 nM. To `O=C(c1cc(Nc2ccc3c(c2)CC2(C3)C(=O)Nc3ncccc32)ncn1)N(CC(F)(F)F)c1ccccc1` (stereo not shown) [(6)] belongs 120 nM; to `CN1C(=O)NC(=O)C12Cc1ccc(Nc3cc(C(=O)N4CCc5ccccc54)ncn3)cc1C2` (stereo not shown) [(9)], 132 nM.
